Results taken from patent publication US20240092799A1, “MNK INHIBITORS” (Hepagene Therapeutics (HK) Limited, priority 2020, published 2024).
Structures can show the parent of a compound that is named as a salt.

Tests used:
MNK2 = MNK2 (Homo sapiens (Human), UniProt Q9HBH9); experiment: MNK Biochemical Enzymatic Assay (ADP-Glo), MNK2 binding assay
Summary of the method: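 Human MNK1 or MNK2 was preincubated with a 10-point, 1:3 serial dilution of compound for 15 min at 25 °C. Substrate was then added and the reaction ran 60 min at 25 °C. ADP formed was read by ADP-Glo luminescence, and IC50 came from non-linear regression.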

TMD-8 cell p-IF4E = experiment: p-eIF4E Signaling Cellular Assay (CisBio HTRF) in TMD-8 cells; type: cell-based; conditions: 40 min treatment
Method: p-eIF4E Signaling Cellular Assay. Phosphorylated eIF4E is assayed using the CisBio p-Eif4E HTRF assay kit. Reagents and equipment used in the assay are listed below, followed by the protocol.
Cell medium: RPMI 1640+10% FBS+1*PS, TMD-8 were cultured as recommended and assayed in exponential growth phase. • a) Plate 30 μL of cells in 384 white assay plate in appropriate medium and proper cell density (20 k/well) based on Optimization at 37° C. under 5% CO2 atmosphere • b) Dispense 90 nL of compounds diluted in DMSO and treat for 40 min at 37° C. under 5% CO2 atmosphere • c) Remove cell supernatant by flicking the plate • d) Add 16 μL of supplemented lysis buffer (1×) for 30 minutes at RT under shaking • e) Add 4 μL of premixed antibody solutions prepared in the detection buffer. Cover the plate with a plate sealer. Incubate 0/N at RT • f) Read the fluorescence emission at 665 nm and 620 nm on Envision • g) Data analysis • (1) Ratio […] signal is calculated for each well • (2) % Inhibition is calculated as follow:
% inhibition=100−(Signalcmpd-SignalAve_PC)/(SignalAve_VC-SignalAve_PC)×100. • (3) Calculate IC50 and Plot effect-dose curve of cmpds:
Calculate IC50 by fitting % Inhibition values and log of compound concentrations to nonlinear regression (dose response−variable slope) with Graphpad 8.0.
Y=Bottom+(Top−Bottom)/(1+10^((Log IC50−X)*Hill Slope)) • X: log of Inhibitor concentration; Y: % Inhibition.

MNK2, sequence (Q9HBH9 whole entry): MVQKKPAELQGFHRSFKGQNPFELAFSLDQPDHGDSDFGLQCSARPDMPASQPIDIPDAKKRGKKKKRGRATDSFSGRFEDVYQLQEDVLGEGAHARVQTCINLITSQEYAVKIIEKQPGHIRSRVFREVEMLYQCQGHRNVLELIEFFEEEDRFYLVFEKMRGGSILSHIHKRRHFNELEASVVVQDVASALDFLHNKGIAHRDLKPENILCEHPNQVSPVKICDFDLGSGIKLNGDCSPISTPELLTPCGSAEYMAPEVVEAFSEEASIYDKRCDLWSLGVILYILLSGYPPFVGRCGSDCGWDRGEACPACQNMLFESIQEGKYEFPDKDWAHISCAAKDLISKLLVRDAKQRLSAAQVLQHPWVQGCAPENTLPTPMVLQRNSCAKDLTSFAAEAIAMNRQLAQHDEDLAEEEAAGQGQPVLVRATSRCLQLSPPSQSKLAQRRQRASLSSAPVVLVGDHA

Compound | IC50 (MNK2) | IC50 (TMD-8 cell p-IF4E; Homo sapiens, TMD8, 40 min) | IC50 (TMD-8 cell p-IF4E)
O=C1NC2(CCCCC2)c2cc(Nc3cc(NCC4CCCC4)ncn3)sc21 [Compound XXIV-H, 2′-((6-((cyclopentylmethyl)amino)pyrimidin-4-yl)amino)spiro[cyclohexane-1,4′-thieno[2,3-c]pyrrol]-6′(5′H)-one] | 10 to 100 nM | 10 to 100 nM | –
O=C1NC2(CCCCC2)c2cc(Nc3cc(N[C@H]4CCCOC4)ncn3)sc21 [Compound XXIV-A, (S)-2′-((6-((tetrahydro-2H-pyran-3-yl)amino)pyrimidin-4-yl)amino)spiro[cyclohexane-1,4′-thieno[2,3-c]pyrrol]-6′(5′H)-one] | 0.1 to 10 nM | 100 to 1000 nM | –
CNC(=O)Nc1cc(Nc2nc3c(s2)C(=O)NC32CCCCC2)ncn1 [Compound XXVIII-L, 1-methyl-3-(6-((6′-oxo-5′,6′-dihydrospiro[cyclohexane-1,4′-pyrrolo[3,4-d]thiazol]-2′-yl)amino)pyrimidin-4-yl)urea] | 0.1 to 10 nM | 100 to 1000 nM | –
Cc1cc(Nc2cc(N[C@H]3CCOC3)ncn2)[n+]([O-])c2c1C(=O)NC21CCCCC1 [Compound XXIX-A, (S)-4′-methyl-5′-oxo-2′-((6-((tetrahydrofuran-3-yl)amino)pyrimidin-4-yl)amino)-5′,6′-dihydrospiro[cyclohexane-1,7′-pyrrolo[3,4-b]pyridine] 1′-oxide] | 0.1 to 10 nM | 0.1 to 10 nM | –
CC(=O)N(C)c1cccc(Nc2cc(Nc3cc(C)c4c([n+]3[O-])C3(CCCCC3)NC4=O)ncn2)n1 [Compound XXIX-AA, 4′-methyl-2′-((6-((6-(N-methylacetamido)pyridin-2-yl)amino)pyrimidin-4-yl)amino)-5′-oxo-5′,6′-dihydrospiro[cyclohexane-1,7′-pyrrolo[3,4-b]pyridine] 1′-oxide] | 0.1 to 10 nM | 0.1 to 10 nM | –
Cn1cnc(Nc2cc(Nc3cc4c(s3)C(=O)NC43CCCCC3)ncn2)c1 [Compound XXXI-B, 2′-((6-((1-methyl-1H-imidazol-4-yl)amino)pyrimidin-4-yl)amino)spiro[cyclohexane-1,4′-thieno[2,3-c]pyrrol]-6′(5′H)-one] | 10 to 100 nM | 100 to 1000 nM | –
O=C1NC2(CCCCC2)c2c1sc(Nc1cc(N[C@H]3CCOC3)ncn1)c2Cl [Compound XXI-A, (S)-3′-chloro-2′-((6-((tetrahydrofuran-3-yl)amino)pyrimidin-4-yl)amino)spiro[cyclohexane-1,4′-thieno[2,3-c]pyrrol]-6′(5′H)-one] | 0.1 to 10 nM | 10 to 100 nM | –
O=C1NC2(CCCCC2)c2cc(Nc3cc(NCCO)ncn3)sc21 [Compound XXIII-J, 2′-((6-((2-Hydroxyethyl)amino)pyrimidin-4-yl)amino)spiro[cyclohexane-1,4′-thieno[2,3-c]pyrrol]-6′(5′H)-one] | 0.1 to 10 nM | 100 to 1000 nM | –
Cc1cc(Nc2cc(Nc3ccn(C)n3)ncn2)[n+]([O-])c2c1C(=O)NC21CCCCC1 [Compound XXIX-K, 4′-methyl-2′-((6-((1-methyl-1H-pyrazol-3-yl)amino)pyrimidin-4-yl)amino)-5′-oxo-5′,6′-dihydrospiro[cyclohexane-1,7′-pyrrolo[3,4-b]pyridine] 1′-oxide] | 0.1 to 10 nM | 0.1 to 10 nM | –
COc1c(N)ncnc1Nc1nc2c(s1)C(=O)NC21CCCCC1 [Compound XXVIII-G, 2′-((6-amino-5-methoxypyrimidin-4-yl)amino)spiro[cyclohexane-1,4′-pyrrolo[3,4-d]thiazol]-6′(5′H)-one] | 0.1 to 10 nM | 10 to 100 nM | –
Cc1cc(Nc2cc(Nc3ccc(N4CCNCC4)cn3)ncn2)[n+]([O-])c2c1C(=O)NC21CCCCC1 [Compound XXIX-AAL, 4′-methyl-5′-oxo-2′-[(6-{[5-(piperazin-1-yl)pyridin-2-yl]amino}pyrimidin-4-yl)amino]-6′H-spiro[cyclohexane-1,7′-pyrrolo[3,4-b]pyridin]-1′-ium-1′-olate] | 0.1 to 10 nM | 0.1 to 10 nM | –
Cc1cc(Nc2cc(Nc3ccn(CCO)n3)ncn2)[n+]([O-])c2c1C(=O)NC21CCCCC1 [Compound XXIX-AT, 2′-((6-((1-(2-hydroxyethyl)-1H-pyrazol-3-yl)amino)pyrimidin-4-yl)amino)-4′-methyl-5′-oxo-5′,6′-dihydrospiro[cyclohexane-1,7′-pyrrolo[3,4-b]pyridine] 1′-oxide] | 0.1 to 10 nM | 0.1 to 10 nM | –
Cc1cc(Nc2cc(N[C@H]3C[C@@](C)(O)C3)ncn2)[n+]([O-])c2c1C(=O)NC21CCCCC1 [Compound XXIX-AAC, 4′-methyl-5′-oxo-2′-[(6-{[trans-3-hydroxy-3-methylcyclobutyl]amino}pyrimidin-4-yl)amino]-6′H-spiro[cyclohexane-1,7′-pyrrolo[3,4-b]pyridin]-1′-ium-1′-olate] | 0.1 to 10 nM | – | 10 to 100 nM
Cc1cc(Nc2cc(Nc3cccc(CO)n3)ncn2)[n+]([O-])c2c1C(=O)NC21CCCCC1 [Compound XXIX-AU, 2′-((6-((6-(hydroxymethyl)pyridin-2-yl)amino)pyrimidin-4-yl)amino)-4′-methyl-5′-oxo-5′,6′-dihydrospiro[cyclohexane-1,7′-pyrrolo[3,4-b]pyridine] 1′-oxide formate salt] | 0.1 to 10 nM | 0.1 to 10 nM | –
Cc1cc(Nc2cc(NC(=O)C3CCCO3)ncn2)[n+]([O-])c2c1C(=O)NC21CCCCC1 (stereo not drawn) [Compound XXIX-AW, 4′-methyl-5′-oxo-2′-((6-(tetrahydrofuran-2-carboxamido)pyrimidin-4-yl)amino)-5′,6′-dihydrospiro[cyclohexane-1,7′-pyrrolo[3,4-b]pyridine] 1′-oxide] | 0.1 to 10 nM | 10 to 100 nM | –
O=C1NC2(CCCCC2)c2cc(Nc3cc(NC(=O)C4CCOC4)ncn3)sc21 (stereo not drawn) [Compound XXIV-I, N-(6-((6′-oxo-5′,6′-dihydrospiro[cyclohexane-1,4′-thieno[2,3-c]pyrrol]-2′-yl)amino)pyrimidin-4-yl)tetrahydrofuran-3-carboxamide] | 0.1 to 10 nM | 100 to 1000 nM | –
O=C1NC2(CCCCC2)c2nc(Nc3ccnc(N[C@H]4CCOC4)c3)sc21 [Compound XXVIII-H, (S)-2′-((2-((tetrahydrofuran-3-yl)amino)pyridin-4-yl)amino)spiro[cyclohexane-1,4′-pyrrolo[3,4-d]thiazol]-6′(5′H)-one] | 0.1 to 10 nM | 10 to 100 nM | –
O=C1NC2(CCCCC2)c2nc(Nc3cc(N[C@H]4C[C@@H](O)C4)ncn3)sc21 [Compound XXVIII-O, Cis-2′-((6-(((1s,3s)-3-hydroxycyclobutyl)amino)pyrimidin-4-yl)amino)spiro[cyclohexane-1,4′-pyrrolo[3,4-d]thiazol]-6′(5′H)-one] | 0.1 to 10 nM | 100 to 1000 nM | –
O=C1NC2(CCCCC2)c2nc(Nc3cc(Nc4ccccn4)ncn3)sc21 [Compound XXVIII-B, 2′-((6-(pyridin-2-ylamino)pyrimidin-4-yl)amino)spiro[cyclohexane-1,4′-pyrrolo[3,4-d]thiazol]-6′(5′H)-one] | 0.1 to 10 nM | 10 to 100 nM | –
O=C1NC2(CCCCC2)c2nc(Nc3ncnc4[nH]ccc34)sc21 [Compound XXVIII-A, 2′-((7H-pyrrolo[2,3-d]pyrimidin-4-yl)amino)spiro[cyclohexane-1,4′-pyrrolo[3,4-d]thiazol]-6′(5′H)-one] | 0.1 to 10 nM | 0.1 to 10 nM | –
O=C1NC2(CCCCC2)c2cc(Nc3ncnc4[nH]ncc34)sc21 [Compound XVII-B, 2′-((1H-pyrazolo[3,4-d]pyrimidin-4-yl)amino)spiro[cyclohexane-1,4′-thieno[2,3-c]pyrrol]-6′(5′H)-one] | 0.1 to 10 nM | 100 to 1000 nM | –
CO[C@H]1C[C@@H](Nc2cc(Nc3cc(C)c4c([n+]3[O-])C3(CCCCC3)NC4=O)ncn2)C1 [Compound XXIX-AAE, 2′-((6-((cis-3-methoxycyclobutyl)amino)pyrimidin-4-yl)amino)-4′-methyl-5′-oxo-5′,6′-dihydrospiro[cyclohexane-1,7′-pyrrolo[3,4-b]pyridine] 1′-oxide] | 0.1 to 10 nM | 0.1 to 10 nM | –
Cc1cc2c(Nc3cc4c(s3)C(=O)NC43CCCCC3)ncnc2[nH]1 [Compound XVII-C, 2′-((6-methyl-7H-pyrrolo[2,3-d]pyrimidin-4-yl)amino)spiro[cyclohexane-1,4′-thieno[2,3-c]pyrrol]-6′(5′H)-one] | 0.1 to 10 nM | 10 to 100 nM | –
COc1c(N)ncnc1Nc1cc2c(s1)C(=O)NC21CCCCC1 [Compound X-C, 2′-((6-amino-5-methoxypyrimidin-4-yl)amino)spiro[cyclohexane-1,4′-thieno[2,3-c]pyrrol]-6′(5′H)-one] | 0.1 to 10 nM | 10 to 100 nM | –
O=C1NC2(CCCCC2)c2cc(Nc3ncnc4[nH]cnc34)sc21 [Compound XVII, 2′-((9H-Purin-6-yl)amino)spiro[cyclohexane-1,4′-thieno[2,3-c]pyrrol]-6′(5′H)-one] | 0.1 to 10 nM | 100 to 1000 nM | –
Cn1cccc(Nc2cc(Nc3cc4c(s3)C(=O)NC43CCCCC3)ncn2)c1=O [Compound XXIV-L, 2′-((6-((1-methyl-2-oxo-1,2-dihydropyridin-3-yl)amino)pyrimidin-4-yl)amino)spiro[cyclohexane-1,4′-thieno[2,3-c]pyrrol]-6′(5′H)-one] | 100 to 1000 nM | – | –
